Measured values published in publication PMC9114115, “Property space mapping of Pseudomonas aeruginosa permeability to small molecules” (Scientific Reports, 2022).
Where “and” joins values, the source holds several entries; their conditions need not be identical. Equal values may be shown once. Where a name gives a salt, the structure may show the parent alone. Read-outs that look alike come from different tables or passages of the source.

How the values were obtained:
P. aeruginosa PΔ3-Pore = experiment: MIC by two-fold dilution, barrierless PΔ3-Pore; assay type: cell-based, Pseudomonas aeruginosa; settings: for MIC: Pseudomonas aeruginosa, read-out: MICs, P∆3-Pore, MOPS-M9 medium; for MICs: P∆3-Pore, LB broth, Table S2
Procedure: (§1) In all experiments, P. aeruginosa PAO1-Pore (PAO1 attTn7::PLAC-fhuA) and PΔ3-Pore (ΔmexAB ΔmexCD ΔmexXY attTn7::PLAC-fhuA) strains were used[29]. Strains were routinely grown in Luria–Bertani (LB) or MOPS-M9 medium at 37 °C with aeration. MICs shown in Tables 1 and 2 were determined by a two-fold dilution method in LB broth and MOPS-M9 medium, respectively, following the previously described protocol.

P. aeruginosa PAO1-Pore = experiment: MIC by two-fold dilution, hyperporinated PAO1-Pore; assay type: cell-based, Pseudomonas aeruginosa; settings: for MICs: PAO1-Pore, LB broth, Table S2; for MIC: Pseudomonas aeruginosa, PAO1, read-out: MICs
Procedure: as §1

P. aeruginosa PAO1 cells = experiment: LC–MS quantification of intracellular accumulation, PAO1; settings: 10-80 µM; for Concentration slopes of accumulation, PAO1_1 min: 1 min incubation; for Concentration slopes of accumulation, PAO1_40 min: 40 min incubation;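 on all read-outs here: slope of accumulation versus external concentration fitted as a line through zero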
Procedure: (§2) PAO1-Pore and PΔ3-Pore were grown at 37 °C overnight with shaking at 225 rpm in 50 mM MOPS-M9 (pH 7.2) Minimal Medium supplemented with 1% glycerol[42],[43].
(§3) The next day, cells were sub-cultured (1.5:100) in fresh MOPS-M9 medium and grown for 16 h. The cultures were then split into two flasks and one of them was induced with 0.1 mM IPTG. Cells incubated for additional 4 h until OD600 reached ~ 1.0 and harvested by centrifugation at 3,275xg for 20 min in RT, washed and concentrated 10X in the spent medium. Assays were performed in 96-well plates in a final volume of […]. Cells were incubated with 10, 20, 40, 80 µM of compounds and after 1- and 40-min incubation at RT, 100 µL cell aliquots were collected by vacuum filtration onto 1.0 µm Glass Fiber Type B filters. For no-cell controls, compounds were diluted to 10, 20, 40, 80 µM final concentration in the same medium, incubated for 1 min and 40 min and filtered onto the same plates. The cell loaded and cell-free filters were dried, removed from plates and placed into 100% methanol at -80 °C for at least 10 min. Filter-bound material was extracted by water bath sonication for 1 min. Cell and filter debris were separated by ultracentrifugation at 45,000 rpm (TLA55 rotor, Beckman) for 8 min at 16 °C and the pellet re-extracted with 80% methanol in water by sonication for 15 min followed by ultracentrifugation at the same conditions. Supernatants from two extractions were combined. For the compound quantification, 5 µL of solution was analyzed in triplicate.
(§4) Calibration curves for MS analyses of compounds were generated in the same experiment by mixing compound at increasing concentrations with the sonicated PAO1 cell extracts. […] Azithromycin was used as a positive control in all experiments.
(§5) Samples were processed in positive ion mode. An Eclipse plus C18 Rapid Resolution HD column (1.8 μm, 2.1 × 50 mm, Agilent, USA) was used for separation. The flow rate was 0.6 mL/min using the following gradient: 0 to 1 min (0- 20% ACN), 1 to 4 min (20- 80% ACN), 4 to 5.1 min (80–100% ACN), 5.1 to 6.30 (100% ACN). Solvents contained 0.1% formic acid to promote positive ion formation in the electrospray. […] Data were analyzed using Agilent Masshunter workstation quantitative analysis v. B.10 software.

P. aeruginosa PΔ3 cells = settings: 10-80 µM; for Concentration slopes of accumulation, PΔ3_1 min: 1 min incubation; for Concentration slopes of accumulation, PΔ3_40 min: 40 min incubation;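 on all read-outs here: slope of accumulation versus external concentration fitted as a line through zero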
Procedure: as §2, §3, §4, §5

[1] = system: P. aeruginosa PAO1-Pore cells; experiment: LC–MS quantification of intracellular accumulation, PAO1-Pore; settings: 10-80 µM; for Concentration slopes of accumulation, PAO1-Pore_1 min: 1 min incubation; for Concentration slopes of accumulation, PAO1-Pore_40 min: 40 min incubation;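 on all read-outs here: slope of accumulation versus external concentration fitted as a line through zero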
Procedure: as §2, §3, §4, §5

P. aeruginosa PAO1 = experiment: MIC by two-fold dilution, wild type PAO1; assay type: cell-based, Pseudomonas aeruginosa; settings: Pseudomonas aeruginosa
Procedure: as §1

[2] = system: P. aeruginosa PΔ3-Pore cells; experiment: LC–MS quantification of intracellular accumulation, PΔ3-Pore; settings: 10-80 µM; for Concentration slopes of accumulation, PΔ3-Pore_1 min: 1 min incubation; for Concentration slopes of accumulation, PΔ3-Pore_40min: 40 min incubation;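 on all read-outs here: slope of accumulation versus external concentration fitted as a line through zero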
Procedure: as §2, §3, §4, §5

P. aeruginosa PΔ3 = experiment: microbe, parasite or virus in culture; assay type: cell-based, Pseudomonas aeruginosa; settings: Pseudomonas aeruginosa, read-out: MICs
Procedure: as §1

[3] = PAO1, MOPS-M9 medium, read-out: MICs

SMILES	MIC (P. aeruginosa PΔ3-Pore)	MICs (P. aeruginosa PΔ3-Pore)	MICs (P. aeruginosa PAO1-Pore)	MIC (P. aeruginosa PAO1-Pore)	Concentration slopes of accumulation, PAO1_1 min (P. aeruginosa PAO1 cells)	Concentration slopes of accumulation, PAO1_40 min (P. aeruginosa PAO1 cells)	Concentration slopes of accumulation, PΔ3_1 min (P. aeruginosa PΔ3 cells)	Concentration slopes of accumulation, PΔ3_40 min (P. aeruginosa PΔ3 cells)	Concentration slopes of accumulation, PAO1-Pore_1 min [1]	Concentration slopes of accumulation, PAO1-Pore_40 min [1]	MIC (P. aeruginosa PAO1; [3])	Concentration slopes of accumulation, PΔ3-Pore_1 min [2]	Concentration slopes of accumulation, PΔ3-Pore_40min [2]	MIC (P. aeruginosa PΔ3)	MIC (P. aeruginosa PAO1; PAO1, read-out: MICs)
CCn1cc(C(=O)O)c(=O)c2cc(F)c(N3CCN(C)CC3)cc21 [OU-0000619, PEFLOXACINE MESYLATE]	0.03 µg/mL	0.0039	0.25	0.25 µM and 0.11 µg/mL	14.50	14.54	21.54	34.80	25.74	33.41	2 µM and 0.9 µg/mL	32.20	39.09	–	–
CCN1CCN(c2cc3c(cc2F)c(=O)c(C(=O)O)cn3C2CC2)CC1 [OU-0000620, ENROFLOXACIN]	0.016 µM and 0.01 µg/mL	0.0039	0.25	0.0625 µM and 0.02 µg/mL	18.49	16.52	14.05	13.99	26.71	27.91	2 µM and 0.7 µg/mL	26.71	29.82	0.5 µM and 0.18 µg/mL	–
CCn1cc(C(=O)O)c(=O)c2cc3c(cc21)OCO3 [OU-0000621, OXOLINIC ACID]	0.078 µM and 0.02 µg/mL	0.097	6.25	0.625 µM and 0.16 µg/mL	5.93	6.11	5.83	6.58	8.17	6.63	20 µM and 5.2 µg/mL	8.75	6.70	2.5 µM and 0.65 µg/mL	–
CN1CCN(c2cc3c(cc2F)c(=O)c(C(=O)O)cn3-c2ccc(F)cc2)CC1 [OU-0000624, DIFLOXACIN]	0.0313 µM and 0.01 µg/mL	0.097	0.39	0.0625 µM and 0.03 µg/mL	3.78	6.48	4.42	5.02	8.04	11.39	2.5 µM and 1.1 µg/mL	6.73	8.21	0.313 µM and 0.14 µg/mL	–
COc1c(N2C[C@@H]3CCCN[C@@H]3C2)c(F)cc2c(=O)c(C(=O)O)cn(C3CC3)c12 [OU-0000626, MOXIFLOXACIN HYDROCHLORIDE]	0.0313 µM and 0.01 µg/mL	0.024	0.39	0.03 µg/mL	1.19	2.06	1.39	2.61	3.02	7.25	2.5 µM and 1.1 µg/mL	2.26	4.78	0.27 µg/mL	–
CC1CCc2c(N3CCC(O)CC3)c(F)cc3c(=O)c(C(=O)O)cn1c23 (stereo not drawn) [OU-0000628, nadifloxacin]	0.0156 µM and 0.01 µg/mL	0.0015	0.39	0.0625 µM and 0.02 µg/mL	6.36	6.93	9.00	9.79	11.41	12.74	5 µM and 1.8 µg/mL	19.74	19.09	0.625 µM and 0.23 µg/mL	–
COc1cnc(NS(=O)(=O)c2ccc(N)cc2)nc1 [OU-0000694]	6.25 µM and 1.75 µg/mL	–	–	12.5 µM and 3.5 µg/mL	2.18	1.74	0.87	1.82	3.10	2.35	–	3.61	3.14	25 µM and 7 µg/mL	> 200 µM and > 56.1 µg/mL
COc1cc(NS(=O)(=O)c2ccc(N)cc2)nc(OC)n1 [Sulfadimethoxine]	1.6 µM and 0.5 µg/mL	–	–	25 µM and 7.8 µg/mL	–	–	–	–	–	–	–	–	–	200 µM and 62.1 µg/mL	> 200 µM and 62.1 µg/mL
Nc1ccc(S(=O)(=O)Nc2ccnn2-c2ccccc2)cc1 [Sulfaphenazole]	3.2 µM and 1 µg/mL	–	–	12.5 µM and 3.9 µg/mL	–	–	–	–	–	–	> 200 µM and > 62.9 µg/mL	–	–	200 µM and 62.9 µg/mL	–
Nc1ccc(S(=O)(=O)Nc2nccs2)cc1 [Sulfathiazole]	1.6 µM and 0.4 µg/mL	–	–	3.2 µM and 0.8 µg/mL	–	–	–	–	–	–	50 µM and 12.8 µg/mL	–	–	6.25 µM and 1.6 µg/mL	–
Cc1noc(NS(=O)(=O)c2ccc(N)cc2)c1C [Sulfisoxazole]	> 200 µM	–	–	> 200 µM	–	–	–	–	–	–	> 200 µM and > 53.7 µg/mL	–	–	> 200 µM	–
